Like-named read-outs stand apart in the source and are kept apart here.

These results are taken from patent publication US20140235536A1, “INJECTABLE SOLUTION AT PH 7 COMPRISING AT LEAST ONE BASAL INSULIN THE ISOELECTRIC POINT OF WHICH IS COMPRISED IN 5.8 AND 8.5 AND AN ANIONIC COMPOUND BEARING CARBOXYLATE CHARGES AND HYDROPHOBIC RADICALS” (ADOCIA, priority 2013, published 2014).

The target in data set [1] is insulin glargine and prandial insulin (Homo sapiens, UniProt P01308, INS54RR/N110G).
Method: 0.25 ml of the insulin glulisine solution of example B3 is added to 0.75 ml of the solution of hydrophobized anionic molecule AA1/insulin glargine prepared according to the protocol described in example B6(a), so as to form 1 ml of a composition at pH 7. […] This clear solution is filtered through a 0.22 μm filter and then placed at +4° C.
0.25 ml of the insulin lispro solution of example B2 is added to 0.75 ml of the solution of hydrophobized anionic molecule AA1/insulin glargine prepared according to the protocol described in example B6(a), so as to form 1 ml of a composition at pH 7. […] This clear solution is filtered through a 0.22 μm filter and then placed at +4° C.
0.25 ml of the insulin aspart solution of example B1 is added to 0.75 ml of the solution of hydrophobized anionic molecule AA1/insulin glargine prepared in example B6(a), so as to form 1 ml of a composition at pH 7. […] This clear solution is filtered through a 0.22 μm filter and then placed at +4° C.
0.4 ml of the insulin lispro solution of example B2 is added to 0.6 ml of the solution of hydrophobized anionic molecule AA1/insulin glargine prepared in example 86(a), so as to form 1 ml of a composition at pH 7. […] This clear solution is filtered through a 0.22 μm filter and then placed at +4° C.
0.6 ml of the insulin lispro solution of example B2 is added to 0.4 ml of the solution of hydrophobized anionic molecule AA1/insulin glargine prepared in example B6(a), so as to form 1 ml of a composition at pH 7. […] This clear solution is filtered through a 0.22 μm filter and then placed at +4° C.
Compositions are prepared by mixing 0.75 ml of the hydrophobized anionic molecule AA1/insulin glargine solution prepared according to the protocol of example B6(a) with 0.25 ml of a prandial insulin, so as to form 1 ml of hydrophobized anionic molecule AA1/insulin glargine/prandial insulin composition (containing 7.5 mg/ml of hydrophobized anionic molecule AA1, 75 IU/ml of insulin glargine and 25 IU/ml of prandial insulin).
The target of data set [2] is T1, insulin glargine (Homo sapiens, UniProt P01308, INS54RR/N110G).
T1 construct: substitution of asparagine residue A21 with a glycine residue; elongation of the C-terminal of the B chain of human insulin with two arginine residues; purchased SANOFI-AVENTIS (Lantus®); ELI LILLY (Humalog®)
In words: Precipitation of hydrophobized anionic molecule/insulin glargine/prandial insulin compositions in PBS/BSA (examples B15-B17). It counts as physicochemical. As for the experimental part: The PBS/BSA mixture simulates the composition of the subcutaneous medium.
(§1) Centrifugation at 4000 rpm is carried out in order to separate the precipitate from the supernatant. The insulin glargine is then assayed in the supernatant by RP-HPLC.
This composition is added to 2 ml of PBS containing 20 mg/ml of BSA. The PBS/BSA mixture simulates the composition of the subcutaneous medium. […] Centrifugation at 4000 rpm is carried out in order to separate the precipitate from the supernatant. The insulin glargine is then assayed in the supernatant by RP-HPLC.

Data set [3] deals with T1, insulin glargine. In words: Precipitation of hydrophobized anionic molecule/insulin glargine composition in PBS/BSA mixture simulating the subcutaneous medium (examples B13, B14). The format is physicochemical. As to conditions: 1 ml composition (10 mg/ml molecule, 100 IU/ml insulin glargine) added to 2 ml PBS containing 20 mg/ml BSA. As for the experimental part: 1 ml of the insulin glargine solution of example B4 is added to 2 ml of a solution of PBS (phosphate buffered saline) containing 20 mg/ml of BSA (bovine serum albumin). The PBS/BSA mixture simulates the composition of the subcutaneous medium.
Centrifugation at 4000 rpm is carried out in order to separate the precipitate from the supernatant. The insulin glargine is then assayed in the supernatant by reverse-phase liquid chromatography (RP-HPLC).
1 ml of hydrophobized anionic molecule AA1/insulin glargine solution prepared in example B6(a) is added to 2 ml of a solution of PBS containing 20 mg/ml of BSA. The PBS/BSA mixture simulates the composition of the subcutaneous medium.
as §1
Solubilization and precipitation tests identical to those described in examples B6 and B14 were carried out with other hydrophobized anionic molecules at the same concentration of 10 mg/ml of hydrophobized anionic molecule for 100 IU/ml of insulin glargine solution.

Data set [4] deals with T1, insulin glargine. As to conditions: alone versus with the cyclodextrin, cited from earlier work.
The conditions of data set [5]: background statement on marketed insulins; cited from earlier work.
[6] abbreviates: 7.5 mg/ml AA1, 75 IU/ml insulin glargine, 25 IU/ml prandial insulin, added to 2 ml PBS containing 20 mg/ml BSA.
The mark [7] stands for this setting: insulin glargine/insulin lispro 75/25 composition at pH 7, 1 ml added to 2 ml PBS containing 20 mg/ml BSA.

T1 sequence (P01308 90-110 N110G limits assumed): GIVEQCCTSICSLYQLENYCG
T1 sequence (P01308 25-56 limits assumed, stated change not applied): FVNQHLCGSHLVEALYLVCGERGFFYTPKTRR

Take “Human insulin (ActRapid ®): commercial 100 IU/ml solution of human insulin (NOVO NORDISK) [reference compound]”: the “Solubilization of insulin glargine/prandial insulin 75/25” value in data set [1] is given as “Yes”. Further, the Insulin glargine precipitation entry with insulin glargine [2] (setting [6]) was “Yes”. “Insulin aspart (NovoLog ®): commercial 100 IU/ml solution of insulin aspart, fast-acting insulin analog (NOVO NORDISK) [reference compound]”: the “Solubilization of insulin glargine/prandial insulin 75/25” value in data set [1] was “Yes”. Also, the Insulin glargine precipitation result with insulin glargine [2] (setting [6]) is “Yes”. Consider “Insulin glulisine (Apidra ®): commercial 100 IU/ml solution of insulin glulisine, fast-acting insulin analog (SANOFI-AVENTIS) [reference compound]”, for which the Insulin glargine precipitation result with insulin glargine [2] (setting [6]) is “Yes”. With “Insulin lispro (Humalog ®): commercial 100 IU/ml solution of insulin lispro, fast-acting insulin analog (ELI LILLY) [reference compound]”, the “Solubilization of insulin glargine/prandial insulin 75/25” value in data set [1] is on record as “Yes”. Also, the Insulin glargine precipitation result in the data set with insulin glargine [2] (setting [6]) is “Yes”. Turning to “Sodium Maltooctaosemethylcarboxylate Functionalized with Cholesteryl Leucinate [AA5]”, the Insulin glargine precipitation entry on insulin glargine [3] and on insulin glargine [2] (setting [7]) was “Yes” throughout. For “Sodium Maltopentaosemethylcarboxylate Functionalized with Cholesteryl Leucinate [AA4]”, the Insulin glargine precipitation entry at insulin glargine [3] and at insulin glargine [2] (setting [7]) was “Yes” each time. Take “Sodium Maltotriosemethylcarboxylate Functionalized with 3,7-dimethyl-octanoyl Phenylalaninate [AA8]”: the Insulin glargine precipitation result at insulin glargine [3] and on insulin glargine [2] (setting [7]) was “Yes” each time. For the substance “Sodium Maltotriosemethylcarboxylate Functionalized with (±)-α-tocopheryl Leucinate [AA9]”, the Insulin glargine precipitation result at insulin glargine [3] and at insulin glargine [2] (setting [7]) was “Yes” in each case. “Sodium Maltotriosemethylcarboxylate Functionalized with Cholesteryl 2-aminoethylcarbamate [AA7]”: the Insulin glargine precipitation result at insulin glargine [3] and at insulin glargine [2] (setting [7]) was “Yes” in each case. Take “Sodium Maltotriosemethylcarboxylate Functionalized with Cholesteryl Leucinate [AA1]”: at insulin glargine [3], the Insulin glargine precipitation result is on record as “Yes”.

For “Sodium Maltotriosemethylcarboxylate Functionalized with Cholesteryl Leucinate [AA3]”, the Insulin glargine precipitation entry at insulin glargine [2] (setting [7]) is “Yes”.

On to “Sodium Maltotriosemethylcarboxylate Functionalized with Dilauryl Aspartate [AA6]”, for which the Insulin glargine precipitation result on insulin glargine [3] and at insulin glargine [2] (setting [7]) was “Yes” in each case. In the case of insulin glargine, the “solubility of insulin glargine” value was 5 µM with insulin glargine [4] (pH 7.4, phosphate buffer) and 750 µM with insulin glargine [4] (pH 9.5). For the same substance, in data set [5], the “duration of action / hypoglycemic effect” value is 24 h.

For the substance “sulfobutyl ether-β-cyclodextrin [SVE4-β-CYD]”, the “solubility of insulin glargine” value was 8 µM at insulin glargine [4] (pH 7.4, phosphate buffer) and 1250 µM at insulin glargine [4] (pH 9.5).
